This is an account of results in EP0612321B1, “PYRIDO PYRIDAZINONE AND PYRIDAZINTHIONE COMPOUNDS WITH PDE IV INHIBITING ACTIVITY” (SYNTEX (U.S.A.) INC., priority 1991, dated 1993).

One series deals with Human Lymphocyte PDE IV. Put plainly: Human Lymphocyte cAMP Phosphodiesterase Assay (inhibition of PDE IV). It counts as biochemical. The settings on record: Inhibition of Human Lymphocyte PDE IV (human B cell line 43D supernatant). The method, then:
Human B cell line (43D) was cultured at 37°C in 7% CO2 in RPMI 1640 with L-glutamine and 10% Nu-Serum. Prior to the assay ∼1.5x10^8 cells were centrifuged at 1000 rpm for 10 minutes in a table top clinical centrifuge. The pellet was resuspended in 2-3 ml of 45 mM Tris-HCl buffer, pH 7.4. The suspension was homogenized and centrifuged at 12,000 x g 4°C for 10 minutes. The supernatant was diluted to 28 ml with Tris-HCl buffer and used directly in the assay or stored at -20°C. The final concentration of DMSO in the PDE incubation medium was 1%. Nitraquazone was included in each assay (10 and 100µM) as a reference standard.
The phosphodiesterase incubation medium contained 10 mM Tris-HCl buffer, pH 7.7, 10 mM MgSO4, 0.1-1µM […] (0.2 µCi) in a total volume of 1.0 ml. Following addition of the enzyme, the contents were mixed and incubated for 10 min at 30°C. The reaction was terminated by immersing the tubes in a boiling-water bath for 90 sec. After the tubes were cooled in an ice-water bath, 0.1 ml (100µg) of 5'-nucleotidase from snake venom (Crotalus atrox, Sigma V-7000) was added to each tube. The contents were mixed and incubated for 30 min at 30°C. The nucleotidase reaction was terminated by immersing the tubes in a boiling water bath for 60 sec. […]

Series [1] relates to plaque-forming cells (PFC). Put plainly: Hemolytic Plaque Forming Cell (PFC) Assay, immunosuppressive activity. The class given is in vivo, C3H female mice. The settings on record: Mus musculus, 96 h; oral dosage form; mice sensitized with SRBC; spleens taken four days after SRBC inoculation; read-out: ED50 (Immune PFC). The text has this:
This procedure is a modification of "The agar plaque technique for recognizing antibody producing cells," a procedure initially described by Jerne, et al. [Cell-bound Antibodies, Amos and Kaprowski editors (Wistar Institute Press, Philadelphia, 1963) p. 109].
Groups of 5-6 adult C3H female mice were sensitized with 1.25 x 10^8 sheep red blood cells (SRBC) and simultaneously treated with an oral dosage form of the test material in an aqueous vehicle. Animals in a control group receive the same volume of vehicle. Four days after SRBC inoculation, spleens are dispersed in glass homogenizers. The number of nucleated cells (WBC) is determined and the spleen cell suspension is mixed with SRBC, guinea pig complement and agar solution at 0.5% concentration. Aliquots of the above mixture (0.1 ml) are dropped on four separate quadrants of a Petri dish and are covered with cover slips. After two hours incubation at 37°C, areas of hemolysis around plaque-forming cells (PFC) are counted with a dissecting microscope. Total WBC/spleen, PFC/spleen and PFC/10^6 WBC (PPM) are calculated for each mouse spleen. Geometric means of each treatment group are then compared with the vehicle-treated control group.

For a further series, the system named is Human PBL. Put plainly: Mitogenic response of human peripheral blood lymphocytes to concanavalin A (3H-thymidine uptake). The class given is cell-based. Conditions: Lymphocyte, concanavalin A 2 µg/ml, 48 hours, read-out: % Suppression. Here is the method: This procedure is a modification of a procedure initially described by Greaves, et al. ["Activation of human T and B lymphocytes by polyclonal mitogens," Nature, 248, 698-701 (1974)].
Human mononuclear cells (PBL) are separated from heparinized whole blood by density gradient centrifugation in Ficoll-Paque (Pharmacia). After washing, 5 x 10^4 cells/well are cultured in microtiter plates with minimal essential media supplemented with 1% human serum, gentamicin, sodium bicarbonate, 2-mercaptoethanol, glutamine, non-essential amino acids, and sodium pyruvate. The mitogen concanavalin A (Sigma) is used at a concentration of 2 µg/ml. Test materials are tested at concentrations between 10^-4 and 10^-10 M, by addition to the culture at time 0. Cultures are set up in quadruplicate and incubated at 37°C in a humidified atmosphere with 5% CO2 for 48 hours. A pulse of 1.0 µCi/well of ^3H-thymidine is added for the last 4 hours. Cells are collected on glass fiber filters with an automatic harvester and radioactivity is measured by standard scintillation procedures. The 50% inhibitory concentration ("IC50") for mitogenic stimulation is determined graphically. The compounds of the present invention show immunosuppressive activity when tested by this method.
The % suppression represents test well counts minus background (wells with no concanavalin A) divided by control well counts (wells with no compound) minus background times 100.

Series [2] deals with Arachidonic Acid-Induced Ear Edema (AAEE). Put plainly: Arachidonic Acid-Induced Ear Edema (AAEE) in the mouse, anti-inflammatory activity. It counts as in vivo, Female Charles River ICR mice. Conditions: 1 h, ear plug weight one hour after arachidonic acid challenge. Here is the method: This procedure is a modification of a procedure described by Young et al., J. Invest. Derm., 82:367-371 (1984).
Female Charles River ICR mice 23-27 grams are administered 0.2 ml of test material. The mice are later challenged with 20 µl of arachidonic acid applied topically to the ear. One hour after challenge, the weight of an 8 mm disc is determined. The mean increase in ear plug weight is calculated. Materials with anti-inflammatory activity inhibit the increase in ear plug weight.

For another series, the system named is mice. Nature of the series: Toxicology, 2 weeks dosing in mice. It counts as in vivo. The settings on record: 3 to 25 mg/kg/day.

One may read the IC50 as the concentration at which inhibition is half-maximal. A low value points to inhibition by little substance. A word on the ED50: it is the dose that gives a 50% effect, or the effect in half of the subjects. `O=c1c2cccnc2c(-c2cccc([N+](=O)[O-])c2)nn1Cc1ccncc1` [Compound I, 6-(4-pyridylmethyl)-8-(3-nitrophenyl)pyrido[2,3-d]pyridazin-5-one] registered a 50% inhibitory concentration (IC50) against Human Lymphocyte PDE IV of 0.23 nM. For the same compound, in series [1], the 50% effective dose (ED50) was determined as 1 mg/kg. Besides, in the series with Human PBL, the inhibition at 0.1 µM is 83%, the inhibition at 1 µM stood at 80%, the inhibition at 10 µM was 85% and the inhibition at 100 µM was determined as 100%. Besides, the ED50 in series [2] stood at 0.003 mg/kg. Also, in the series on mice, the “CONCLUSION (mortality)” value is listed as “no mortality occurred at any of the dose levels tested”.
For the compound `O=c1c2cccnc2c(-c2cccc(Cl)c2)nn1Cc1ccncc1` [Compound II, 6-(4-pyridylmethyl)-8-(3-chlorophenyl)pyrido[2,3-d]pyridazin-5-one], on Human Lymphocyte PDE IV, 1 nM corresponded to half-maximal inhibition (IC50). Further, the ED50 in series [1] is 3 mg/kg. Moreover, in the series with Human PBL, the inhibition at 0.1 µM worked out at 74%, the inhibition at 1 µM was found to be 83%, the inhibition at 10 µM was found to be 87% and the inhibition at 100 µM worked out at 100%. The compound further gave an ED50 in series [2] of 0.009 mg/kg. Also, the “CONCLUSION (mortality)” value with mice is reported as “no mortality occurred at any of the dose levels tested”.
